“Also recorded” adds a separate entry of the source.
Columns and labels:
[1] = tested on: IDPN-induced bilateral vestibular deficit; experiment: Behavioral evaluation of bilateral (nitrile, IDPN)-induced vestibular deficit; type: in vivo, rat
Text: Vestibular rating score was estimated as previously described (Brugeaud et al., 2007; Boadas-Vaello et al. 2005). Animals were scored from range 0 to 4, respectively corresponding to normal behavior to maximal vestibular deficit. Rating 1 means that the behavior is not normal but no specific vestibular deficit is effectively determined; rating 2 corresponds to an identified but slight vestibular deficit and, rating 3 describes an identified and evident deficit. Six different tests were sequentially scored and totalized to rate the vestibular deficit: 1—the head bobbing, when abnormal intermittent backward extension of the neck was observed; 2—the circling stereotyped movement ranging from none to compulsive circles around the animal hips; 3—the retro-pulsion, a typical backward walk reflecting vestibular disturbance; 4—the tail-hanging reflex, that normally induces a normal forelimb extension to reach the ground, results in the ventral bent of the body and grip of the tail when the vestibular deficit is maximal; 5—the contact-inhibition reflex normally leads animal hold to a metal grid in a subpine position to return when their back touch the ground; in case of vestibular deficit with a lack in the body orientation referential, this reflex is abolished, the animal stays griped to the grid in a supine position; 6—the air-righting reflex is necessary for animals to land on their feet when they fall from a supine position; vestibular dysfunction impairs this normal reversal, a maximal deficit leads the animal to land on its back when dropped from a height of 40 cm onto a foam cushion. Vestibular rating scores were expressed for each time point as a percentage of the t0 score.
Validation of the restorative effect of said serotonin 5-HT3 antagonist is also assessed on animal model of bilateral vestibular deficit by analysing the time course of arrival and removal of both excitotoxic lesions and ensuing vestibular deficit following intoxication with nitriles (IP injection—Seoane et al., J. Comp. Neurol. 2001, 439:385-399). […] Protection is assessed by administration of said serotonin 5-HT3 antagonist following different schedules (at the start of chronic intoxication; 24 and 48 h after).
IDPN (1 g/kg; ip) induces bilateral and permanent vestibular damage through destruction of the vestibular sensory epithelium. […] We assessed the effect of IDPN injection using behavioral testing of vestibular deficits. We evaluated the protective effect of single or double injections of ondansetron throughout the time course of injury progression following IDPN injection to determine the vestibuloprotective potential of ondansetron. […]

[2] = tested on: kainate-induced unilateral vestibular deficit; experiment: Behavioral evaluation of excitotoxically (kainate)-induced unilateral vestibular deficit; type: in vivo, rat; conditions: 4 mg/kg ip 1 h after transtympanic KA injection; 24 h after KA; vs untreated; p=0.022 Mann Whitney
Description: Validation of the restorative effect of said serotonin 5-HT3 antagonist is assessed by analysing the time course of arrival and removal of both excitotoxic lesions and ensuing vestibular deficit that occur within vestibular endorgans during intra auricular application of glutamate agonists. In the vestibular endorgans, massive application of kainic acid induces excitotoxic impairments of the neuronal network in the sensory organs (swelling of terminals that contact hair cells-Brugeaud et al., 2007). Histological studies of the expansion and reduction of excitotoxic lesions are undertaken using light and electron microscopy. Behavioural evaluation of vestibular deficit is undertaken using specific behavioural tests of the vestibular function. Under the paradigm developed in the rat, transtympanic application of kainic acid allows its diffusion into the inner ear. […] We evaluate the effect of KA injection using behavioral testing of vestibular deficits and histological quantification of the induced lesion. […] Animals were scored from range 0 to 4, respectively corresponding to normal behavior to maximal vestibular deficit. Rating 1 means that the behavior is not normal but no specific vestibular deficit is effectively determined; rating 2 corresponds to an identified but slight vestibular deficit and, rating 3 describes an identified and evident deficit. […]

[3] = tested on: hair cells and synaptic terminals of vestibular sensory epithelia (utricles); experiment: Histological and morphometric evaluation of kainate-induced vestibular lesions; type: in vivo, rat; conditions: 4 mg/kg ip 1 h after KA
Description: 1 h after KA injection, vestibular behavior of the animals was tested followed by ondansetron injection in the treatment group. […] Subsequently, the animals were tested at 2 h, 6 h, 24 h and 48 h after KA injection. Histological and morphometric analysis were performed at 2 and 24 hours after KA injection in the presence and absence of ondansetron treatment.
Preparation of semi-thin sections of sensory epithelia. We anesthetized female adult rats (Wistar; 200-220 g; n=3 for each treatment) with pentobarbital (0.4%). Animals were perfused transcardially with heparin PBS (0.01M) followed by a fixative solution (2% paraformaldehyde, 2.5% glutaraldehyde 1% picric acid, 5% sucrose) and samples post-fixed. […] Whole vestibular organs were postfixed in 2% OsO4, dehydrated, embedded in Araldite, and 1 μm thick sections were cut. A Nanozoomer Slide Scanner (RIO imaging, Montpellier, France) allowed the observation and scanning of samples mounted on slides.
Scans of semi-thin sections acquired with the Nanozoomer Slide Scanner were analyzed. Quantification of hair cells in utricles was done with Metamorph software (Universal Imaging). For each lesioned and contralateral ear, 3 sections distant of 20 to 25 μm each were analyzed. Thus, 400 cells for each epithelium were counted for each treatment on 3 different animals with the contralateral ear as pooled control. […] ANOVA was used to search for statistical difference, followed by Tukey Test to compare between treatments.

[4] = tested on: patients with suspicion of vestibular neuritis; experiment: Clinical study of vestibular deficit following acute vestibular neuritis (VNG, hospitalization, first walk); type: in vivo, human; conditions: 5 days treatment, ondansetron 8 mg/d vs metoclopramide 30 mg/d, n=10 each; for vestibular deficit, VNG at 1 month / vestibular deficit, early VNG (caloric tests): with methylprednisolone and valacyclovir; for vestibular deficit, VNG at 1 month: p=0.07; for vestibular deficit, early VNG (caloric tests): VNG 24 to 48 hours after beginning of deficit; for vestibular deficit, early VNG (caloric tests) / hospitalization duration: p=0.03; for time of first walk: p=0.001
Description: Methods: A clinical study conducted by the inventors at the Centre Hospitalier Universitaire (CHU) of Montpellier was carried out. Random clinical tests were performed on 20 patients. Patients were selected on the suspicion of vestibular neuritis started for less than 24 h before the hospitalization. The patients were all administered with methylprednisolone and valacyclovir, and either a 5 days treatment with Metoclopramide (30 mg/d, n=10) or with Ondansetron (8 mg/d, n=10). The functional evaluation was based on a early VNG (vestibulonystagmography) test (realized 24 to 48 hours after the beginning of the vestibular deficit) and a VNG at 1 month. The hospitalization duration and the date of the first walk were also recorded.

[5] = Stability of solution comprising ondansetron base; type: physicochemical; conditions: 1 month storage
Description: Chemical stability of the solution was also assessed: […]

| SMILES | time course of increasing vestibular deficits ([1]; 1 dose 4 mg/kg ip 24 h after IDPN injection) | time course of increasing vestibular deficits ([1]; 1 dose 4 mg/kg ip 48 h after IDPN injection) | time course of increasing vestibular deficits ([1]; 1 dose 4 mg/kg ip simultaneously with IDPN 1 g/kg ip) | time course of increasing vestibular deficit / vestibular deficits at 54 h ([1]; 2 doses 4 mg/kg ip 24 and 48 hours after IDPN injection, at 54 h, 4 mg/kg) | vestibular deficits (vestibular rating score) at 24 hours [2] | number of not-determined hair cells ([3]; 24 hrs after the KA lesion, P<0.01) | number of type I hair cells ([3]; 24 hrs after the KA lesion, p<0.01) | maturation of neo-formed synaptic terminals (photonic microscopy) ([3]; 24 hrs after the lesion) | vestibular deficit, VNG at 1 month [4] | vestibular deficit, VNG at 1 month ([4]; listed as O) [%] | vestibular deficit, early VNG (caloric tests) [4] | time of first walk [4] [days] | hospitalization duration [4] [days] | chemical degradation with pH modification [5] | vestibular deficit, VNG at 1 month ([4]; listed as M) [%] | vestibular deficit, early VNG (caloric tests) ([4]; listed as metoclopramid) |
| --- | --- | --- | --- | --- | --- | --- | --- | --- | --- | --- | --- | --- | --- | --- | --- | --- |
| Cc1nccn1CC1CCc2c(c3ccccc3n2C)C1=O (centres unmarked) [Ondansetron, 1,2,3,9-tetrahydro-9-methyl-3-[(2-methyl-1H-imidazol-1-yl)methyl]-4H-carbazol-4-one] | not significantly altered | not significantly altered | not significantly altered | significant modification; also recorded: significantly less severe | significantly reduced | significantly reduced | significantly increased | seemed to potentiate | 43,0% | 43 | 56,53% | 1.25 | 2.88 | not associated to significant chemical degradation | – | – |
| CCN(CC)CCNC(=O)c1cc(Cl)c(N)cc1OC [Metoclopramide] | – | – | – | – | – | – | – | – | 63,4% | – | 84.38% | 2.25 | 4.5 | – | 63.4 | 84,38% |

Reference: US8580730B2, “Methods of treating lesional vestibular disorders by administering serotonin 5-HT3 receptor antagonists” ((INSERM) Institut National de la Sante et de la Recherche …, priority 2009, dated 2013)
